“Also recorded” adds a separate entry of the source. Read-outs that look alike come from different tables or passages of the source. Where no end group is shown, it is not given here.
T1: purified GmRLK18-1 LRR domain (6x his-RHG1) (Glycine max)
T1 chain: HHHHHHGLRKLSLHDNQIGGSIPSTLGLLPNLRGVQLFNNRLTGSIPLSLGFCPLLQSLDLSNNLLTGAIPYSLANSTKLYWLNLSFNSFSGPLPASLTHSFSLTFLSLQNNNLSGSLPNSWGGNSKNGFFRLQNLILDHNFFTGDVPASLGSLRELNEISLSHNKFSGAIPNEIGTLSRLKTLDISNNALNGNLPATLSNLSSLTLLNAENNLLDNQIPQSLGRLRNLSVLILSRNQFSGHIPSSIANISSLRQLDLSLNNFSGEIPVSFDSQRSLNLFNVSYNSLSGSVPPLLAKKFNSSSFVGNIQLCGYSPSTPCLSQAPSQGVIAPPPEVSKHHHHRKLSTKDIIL


Legend:
[1] = tested on: GmRLK8-1 LRR domain (RHG4); assay: Binding of CLE like peptides to purified LRR domain of the RLK at Rhg4, titration by luminescence spectrometry; set-up: species or system Glycine max
From the text: (§1) The full length rhg1/Rfs2 or Rhg4 cDNA from the SCN resistant cultivar, ‘Forrest’ (Bruker et al. 2005), was sub-cloned in pGEM-T vector. For the rhg1/Rfs2 LRR DNA was PCR amplified using internal primers. Primers were designed to copy and amplify a 1032 bp region encompassing the 10 LRRs of rhg1. The sense primer 141-485F: 5′-[…]-3′ contained an eight base linker followed by an NcoI restriction site (in bold) to allow in-frame cloning into the expression vector pET30A (+). A factor Xa site (underlined) was incorporated in the sense primer in order to cleave the fusion protein. The anti-sense primer 141-485R: 5′-[…]-3′ contained a six base linker followed by an XhoI restriction site (in bold). The stop codon (underlined) was added to the primer sequence to terminate the RHG1 translation. The amplicon obtained by PCR was isolated by agarose gel electrophoresis and purified using gel elution. The amplified fragment was subcloned into pGEMT vector by ligation of the 3′T vector overhang with the 3′A added by Taq polymerase during template amplification. The complementarity between the vector 3′T overhangs and the PCR product 3′A overhangs allowed for direct ligation of PCR products into the vector. pGEMT vector was transformed into DH5a cells, positive colonies were selected and grown overnight in 5 ml of 2-fold YT medium. The recombinant plasmid DNA was purified using the Qiagen mini-prep kit.
(§2) BL21-CodonPlus™-RIL series of strains contain extra copies of the E. coli argU, ileY, and leuW tRNA genes. The modification allowed for high expression of proteins that were difficult to express in conventional E. coli hosts due to the codon usage bias of the gene of interest. RHG1 protein contained 18 codons rarely used in E. coli in the LRR alone (Table 3.1). The 5 ml of LB overnight culture containing Rhg1/Rfs2 LRR or Rhg4 LRR was transferred to 1 L of M9 minimal media supplemented with ammonium sulfate and kanamycin. The cells were grown at 37° C. to an O.D of 1.0. The protein was induced with 0.4 mM IPTG and incubated at 16° C. in an orbital shaker for 18-20 h.
Proteins were solubilized from IBs, purified and refolded by the method described by Afzal and Lightfoot 2007, Protein Expression and Purification 53: 346-355. They were produced as in Example 9 and used for Far Western identification of interacting root proteins (FIGS. 4 & 5) and for identification of preferred ligands among small peptides found in root phloem (Table 4).

[2] = target: GmRLK18-1 LRR domain (RHG1); assay: Binding of CLE like peptides to purified LRR domain of the RLK at rhg1/Rfs2, titration by luminescence spectrometry; set-up: species or system Glycine max
From the text: as §1
About […] of the LRR sub-clone plasmid DNA was digested with NcoI and XhoI. Purified insert was ligated overnight at 16° C. using T4 DNA ligase into a XhoI/NcoI predigested pET30a (+) vector. The ratio of insert DNA to plasmid DNA was 3:1. The construct contained the hexa-his inframe with the Factor Xa vector site and 5′ end of the insert. The recombinant plasmid was transformed into DH5a cells. Positive colonies were selected on 2-fold YT plates supplemented with 50 μg/ml kanamycin and screened by digestion of mini-prep plasmid DNA with NcoI and XhoI followed by agarose gel electrophoresis. The nature of the inserts were also verified by DNA sequence analysis using the ABI 377 DNA sequencer (Foster City, Calif.).
A Quikchange site directed mutagenesis kit (Stratagene) was used for RLSH generation. Both sense and anti-sense primers were designed to loop out the 114 bp nucleotide linker region between the hexa-his tag and the first codon of RLLH. The forward primer DMF1: 5′-[…]-3′ and reverse primer DMR1: 5′-[…]-3′ were complementary in sequence and annealed to opposite stands of DNA. Amplification of template was performed with Pfu-Turbo DNA polymerase. Following amplification, the parent DNA (methylated and hemi-methylated) was digested with DpnI endonuclease (target sequence: 5′-Gm6ATC-3′). The amplified vector DNA containing the desired deletion was transformed into XL1-Blue competent cells and the cells were grown overnight in 2XYT supplemented with 50 μg/ml tetracycline and 50 μg/ml kanamycin. Colonies were picked, grown overnight, DNA purified and inserts identified by digestion of plasmid DNA with NdeI and XhoI followed by 2% (w/v) agarose gel electrophoresis. DNA was subsequently sequenced to verify looping out of the RLLH linker region. DNA from positive clones was transformed into BL21 (DE3-RIL) competent cells.
as §2, with “h. […]” for “h.”

[3] = Exogenous peptide treatment of plants; type: in vivo; conditions: phenotypes: transient wilting, increased plant vigor, increased disease resistance
GmRLK18-1 LRR domain = assay: Far-Western analysis of soybean root proteins probed with the LRR domain of GmRLK18-1; type: binding, Glycine max; conditions: 2D gel of SCN inoculated root proteins of NIL 34-23; MS identification
[4] = target: GmRLK8-1 LRR domain (from the RLK protein at Rhg4) (Glycine max); assay: fluorescence (luminescence spectrometry) titration of peptide with purified LRR domain, in vitro
[5] = target: T1, purified GmRLK18-1 LRR domain (6x …); assay: as above
[6] = target: T1, purified GmRLK18-1 LRR domain (6x …); assay: fluorescence (luminescence spectrometry) titration of peptide with purified LRR domain, in vitro; apparent Kd for dimerization
[7] = purified LRR domain, binding constants calculated from titration experiments, read-out: Kd (nM) RHG4
[8] = purified LRR domain, binding constants calculated from titration experiments, read-out: Kd (nM) RHG1

| Molecule | Kd [1, 7] [nM] | Kd [2, 8] [nM] | Kd [4] [nM] | Kd [5] [nM] | further results |
| --- | --- | --- | --- | --- | --- |
| AHEVPSGPNPISNR [T, AHEVPSGPNPISNR] | 204 | – | – | – | binding by the GmRLK8-1 LRR domain protein, in words ([1]; assays in vitro): bound weakly; Kd ([2]; assays in vitro, read-out: binding constants, GmRLK18-1-LRR): 20 nM; effect as exogenous treatment [3]: effective |
| CTLSRLKTLDISNNALNGNLPATLSNLS [L] | 135 | – | – | – | Kd ([2]; estimated from the peptide with one diverged LRR motif, read-out: apparent Kd for dimerization): 36 nM |
| DLPLAPADRLAPGGPDPQHNVRAPPRKP [2L] | 338 | 142 | – | – | – |
| KGLGLHEELRTVPSGPDPLHHHVNPPRQPR [3L] | 142 | 65 | – | – | – |
| KRLSPSGPDPHHH [N, KRLSPSGPDPHHH] | – | 30 | – | – | Kd ([1]; assays in vitro, read-out: affinity, GmRLK8-1 LRR domain): 78 nM; binding by the GmRLK18-1 derived LRR peptide, in words ([2]; assays in vitro): strong binding constant; effect as exogenous treatment [3]: effective |
| RAELDFNYMSKRRVPNGPDPIHNRRAGNSGR [36L] | 51 | 49 | – | – | – |
| RLAPEGPDPHHN [compound 30, RLAPEGPDPHHN] | 84 | 44 | – | – | binding by the GmRLK8-1 LRR domain protein, in words ([1]; assays in vitro): bound very weakly; binding by the GmRLK18-1 derived LRR peptide, in words ([2]; assays in vitro): bound weakly |
| RLAPGGPDPQHN [compound 2, RLAPGGPDPQHN] | 96 | 45 | – | – | binding by the GmRLK8-1 LRR domain protein, in words ([1]; assays in vitro): bound very weakly |
| RTVPSGPDPLHH [compound 3, RTVPSGPDPLHH] | 50 | 29 | – | – | binding by the GmRLK18-1 derived LRR peptide, in words ([2]; assays in vitro): strong binding constant |
| SKRRVPNGPDPIHNR [compound 36, SKRRVPNGPDPIHNR] | 52 | 14 | – | – | – |
| cyclophilin: soybean cyclophilin, GenBank gi 17981611, binds the purified LRR domain | – | – | – | – | binding to the GmRLK18-1 LRR domain in Far-Western (GmRLK18-1 LRR domain): bound strongly; also recorded: interacting partner |
| RTVPSGPDPLHH (modifications not checked) [peptide 3 (GmCLE3, AtCLE3, AtClv3 unmodified)] | – | – | 50 | 29 | – |
| RLAPGGPDPQHN (modifications not checked) [peptide 2 (GmNIC1, LjCLE-R2 and LjCLE-R1)] | – | – | 96 | 45 | – |
| RAELDFNYMSKRRVPNGPDPIHNRRAGNSGR (modifications not checked) [peptide 36L (GmCLE34, AtCLE36, MtCLE36)] | – | – | 51 | 49 | – |
| KRLSPSGPDPHHH (modifications not checked) [peptide N (HgCLV3)] | – | – | 78 | 30 | – |
| KGLGLHEELRTVPSGPDPLHHHVNPPRQPR (modifications not checked) [peptide 3L (GmCLE3, AtCLE3, AtClv3 unmodified)] | – | – | 142 | 65 | – |
| RLAPEGPDPHHN (modifications not checked) [peptide 30 (GmCLE30, GmRIC1)] | – | – | 84 | 44 | – |
| DLPLAPADRLAPGGPDPQHNVRAPPRKP (modifications not checked) [peptide 2L (GmNIC1, LjCLE-R2 and LjCLE-R1)] | – | – | 338 | 142 | – |
| SKRRVPNGPDPIHNR (modifications not checked) [peptide 36 (GmCLE34, AtCLE36, MtCLE36)] | – | – | 52 | 14 | – |
| CTLSRLKTLDISNNALNGNLPATLSNLS (modifications not checked) [peptide L (GmLRR, GmRLK18-1)] | – | – | 135 | – | Kd [6]: 36 nM |
| AHEVPSGPNPISNR (modifications not checked) [peptide T (GmTDIF, ZeTDIF)] | – | – | 204 | 20 | – |

From patent publication US20120192315A1, “RESISTANCE GENES AND PROTEINS ACTIVE AGAINST FUSARIUM ROOT ROTS, CYST NEMATODES AND SOYBEAN SUDDEN DEATH SYNDROME AND METHODS EMPLOYING SAME” (Southern Illinois University Carbondale, priority 2011, published 2012)
